Measurements as given in patent publication US9247759B2, “Identification of human T2R receptors that respond to bitter compounds that elicit the bitter taste in compositions, and the use thereof in assays to identify compounds that inhibit (block) bitter taste in compositions and use thereof” (SENOMYX, INC., priority 2007, dated 2016).

Columns and labels:
hT2R10 = hT2R10 (Homo sapiens (Human), UniProt Q9NYW0); experiment: hT2R panel inhibition, transient HEK293 G16g44, agonist Strychnine 50 μM; type: cell-based; details: HEK293, read-out: screening result against bitter receptor 10, compound at 25 μM; receptor activated to EC80 with the corresponding agonist
Sequence of hT2R10 (Q9NYW0 whole entry): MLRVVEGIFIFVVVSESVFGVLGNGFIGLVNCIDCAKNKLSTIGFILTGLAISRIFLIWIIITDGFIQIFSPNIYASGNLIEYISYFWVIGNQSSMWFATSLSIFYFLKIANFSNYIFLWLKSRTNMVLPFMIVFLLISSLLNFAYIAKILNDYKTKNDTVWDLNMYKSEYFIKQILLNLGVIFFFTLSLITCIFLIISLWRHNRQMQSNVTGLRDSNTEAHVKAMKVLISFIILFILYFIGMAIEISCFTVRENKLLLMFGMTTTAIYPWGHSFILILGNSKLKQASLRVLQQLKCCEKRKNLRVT

hT2R9 = hT2R9 (Homo sapiens (Human), UniProt Q9NYW1); experiment: hT2R panel inhibition, transient HEK293 G16g44, agonist Ofloxacin 1 mM; type: cell-based; details: HEK293, compound at 25 μM; receptor activated to EC80 with the corresponding agonist; read-out: screening result against bitter receptor 9
Sequence of hT2R9 (Q9NYW1 whole entry): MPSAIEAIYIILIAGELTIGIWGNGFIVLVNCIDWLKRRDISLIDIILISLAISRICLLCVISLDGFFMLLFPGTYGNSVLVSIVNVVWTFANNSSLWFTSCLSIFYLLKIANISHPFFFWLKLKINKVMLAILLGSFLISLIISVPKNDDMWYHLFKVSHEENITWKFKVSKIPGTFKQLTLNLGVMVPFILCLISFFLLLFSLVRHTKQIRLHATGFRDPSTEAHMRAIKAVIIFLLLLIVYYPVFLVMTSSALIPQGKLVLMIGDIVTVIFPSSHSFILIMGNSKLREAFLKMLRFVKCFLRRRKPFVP
Experimental: Specifically, in order to evaluate the inhibitory selectivity of the Compound C compound, this compound was tested against 22 human T2Rs which were deorphaned by Senomyx. These receptors and the bitter ligands that activate these human T2Rs are reported in earlier patent applications which are incorporated by reference herein. These 22 human T2Rs are hT2R1, 3, 4, 5, 7, 8, 9, 10, 13, 14, 16, 44, 51, 54, 55, 61, 63, 64, 65, 67, 71 and 75. The amino acid and nucleic acid sequences of all of these T2Rs may be found in these earlier patent applications. These human T2Rs were each individually transiently transfected into HEK293 cells that stably express the promiscuous G protein G16g44 and functional assays were effected using these receptors as disclosed in these same patent applications. […] The ligands were used at EC80 concentration levels. The list of bitter ligands utilized and the tested ligand concentrations are contained in Table 5 of this example.
Relating to the foregoing, FIG. 5 contains experimental results wherein Compound C was tested with different agonist compounds. The inhibition activity is represented by the reduction of receptor activity in the presence of Compound C. […] These 13 hT2Rs are hT2R3, 7, 10, 14, 16, 44, 51, 55, 61, 63, 64, 65, and 71.

hT2R5 = hT2R5 (Homo sapiens (Human), UniProt Q9NYW4); experiment: hT2R panel inhibition, transient HEK293 G16g44, agonist Picoline 10 mM; type: cell-based; details: HEK293, compound at 25 μM; receptor activated to EC80 with the corresponding agonist; read-out: screening result against bitter receptor 5
Sequence of hT2R5 (Q9NYW4 whole entry): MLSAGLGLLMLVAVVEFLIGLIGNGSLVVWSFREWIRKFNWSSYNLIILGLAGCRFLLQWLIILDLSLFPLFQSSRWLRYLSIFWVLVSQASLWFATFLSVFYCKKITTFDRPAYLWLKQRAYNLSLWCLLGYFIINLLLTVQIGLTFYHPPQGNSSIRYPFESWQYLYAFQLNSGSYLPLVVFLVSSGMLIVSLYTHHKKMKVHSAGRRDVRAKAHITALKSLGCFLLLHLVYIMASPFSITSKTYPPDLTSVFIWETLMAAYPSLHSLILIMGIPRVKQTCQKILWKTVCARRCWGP
In short: (§1)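 The test compound's selectivity was profiled by challenging each transiently expressed human T2R with its activating bitter ligand at an EC80 concentration, inhibition being the reduction of receptor signalling it produced.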

hT2R3 = hT2R3 (Homo sapiens (Human), UniProt Q9NYW6); experiment: hT2R panel inhibition, transient HEK293 G16g44, agonist Chloroquine pH6.5 50 μM; type: cell-based; details: HEK293, compound at 25 μM; receptor activated to EC80 with the corresponding agonist; read-out: screening result against bitter receptor 3
Sequence of hT2R3 (Q9NYW6 whole entry): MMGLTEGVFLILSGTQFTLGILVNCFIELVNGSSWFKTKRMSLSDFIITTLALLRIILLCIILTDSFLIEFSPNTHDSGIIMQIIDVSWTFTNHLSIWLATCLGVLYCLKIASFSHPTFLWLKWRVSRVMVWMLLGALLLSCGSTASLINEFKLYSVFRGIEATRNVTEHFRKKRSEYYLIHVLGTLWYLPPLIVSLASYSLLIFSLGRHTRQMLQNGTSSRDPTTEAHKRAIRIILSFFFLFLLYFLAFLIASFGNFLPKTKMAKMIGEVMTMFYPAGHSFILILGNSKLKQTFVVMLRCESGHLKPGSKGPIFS
In short: as §1

hT2R65 = experiment: hT2R panel inhibition, transient HEK293 G16g44, agonist Oleuropein 1 mM; type: cell-based, human; details: compound at 25 μM; receptor activated to EC80 with the corresponding agonist
In short: as §1

hT2R61 = hT2R61 (Homo sapiens (Human), UniProt P59537); experiment: hT2R panel inhibition, transient HEK293 G16g44, agonist Aristolochic Acid 25 nM; type: cell-based; details: HEK293, compound at 25 μM; receptor activated to EC80 with the corresponding agonist; read-out: screening result against bitter receptor 61
Sequence of hT2R61 (P59537 whole entry): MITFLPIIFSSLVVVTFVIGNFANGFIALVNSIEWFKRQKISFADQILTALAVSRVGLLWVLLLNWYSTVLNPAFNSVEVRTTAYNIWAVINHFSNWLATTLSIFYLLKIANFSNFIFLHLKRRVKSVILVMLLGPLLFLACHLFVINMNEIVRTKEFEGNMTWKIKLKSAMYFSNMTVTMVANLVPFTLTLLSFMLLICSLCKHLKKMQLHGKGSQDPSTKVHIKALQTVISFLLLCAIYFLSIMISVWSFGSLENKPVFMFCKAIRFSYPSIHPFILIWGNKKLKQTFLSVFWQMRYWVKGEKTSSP
In short: as §1

hT2R71 = hT2R71 (Homo sapiens (Human), UniProt P59536); experiment: hT2R panel inhibition, transient HEK293 G16g44, agonist Picric Acid 10 μM; type: cell-based; details: HEK293, compound at 25 μM; receptor activated to EC80 with the corresponding agonist; read-out: screening result against bitter receptor 71
Sequence of hT2R71 (P59536 whole entry): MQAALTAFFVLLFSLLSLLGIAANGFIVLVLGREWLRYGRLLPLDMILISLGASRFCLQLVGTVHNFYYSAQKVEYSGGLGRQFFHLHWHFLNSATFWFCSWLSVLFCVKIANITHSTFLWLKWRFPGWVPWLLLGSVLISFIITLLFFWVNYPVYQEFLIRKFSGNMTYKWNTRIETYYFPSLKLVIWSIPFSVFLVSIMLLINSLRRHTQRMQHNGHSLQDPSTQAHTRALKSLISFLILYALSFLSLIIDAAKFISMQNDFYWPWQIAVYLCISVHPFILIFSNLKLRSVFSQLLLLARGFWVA
In short: as §1

hT2R64 = hT2R64 (Homo sapiens (Human), UniProt P59538); experiment: hT2R panel inhibition, transient HEK293 G16g44, agonist Aristolochic Acid 1 μM; type: cell-based; details: HEK293, compound at 25 μM; receptor activated to EC80 with the corresponding agonist; read-out: screening result against bitter receptor 64
Sequence of hT2R64 (P59538 whole entry): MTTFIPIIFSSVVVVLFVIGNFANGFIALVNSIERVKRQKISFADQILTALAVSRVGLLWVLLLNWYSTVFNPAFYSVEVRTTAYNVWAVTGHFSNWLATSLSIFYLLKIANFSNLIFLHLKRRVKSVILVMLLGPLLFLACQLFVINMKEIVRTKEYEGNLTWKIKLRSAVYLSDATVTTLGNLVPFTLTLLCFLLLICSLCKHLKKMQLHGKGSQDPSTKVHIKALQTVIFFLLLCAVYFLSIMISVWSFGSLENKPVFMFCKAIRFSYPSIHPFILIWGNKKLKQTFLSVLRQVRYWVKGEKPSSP
In short: as §1

hT2R16 = hT2R16 (Homo sapiens (Human), UniProt Q9NYV7); experiment: hT2R panel inhibition, transient HEK293 G16g44, agonist Salicin 1 mM; type: cell-based; details: HEK293, compound at 25 μM; receptor activated to EC80 with the corresponding agonist; read-out: screening result against bitter receptor 16
Sequence of hT2R16 (Q9NYV7 whole entry): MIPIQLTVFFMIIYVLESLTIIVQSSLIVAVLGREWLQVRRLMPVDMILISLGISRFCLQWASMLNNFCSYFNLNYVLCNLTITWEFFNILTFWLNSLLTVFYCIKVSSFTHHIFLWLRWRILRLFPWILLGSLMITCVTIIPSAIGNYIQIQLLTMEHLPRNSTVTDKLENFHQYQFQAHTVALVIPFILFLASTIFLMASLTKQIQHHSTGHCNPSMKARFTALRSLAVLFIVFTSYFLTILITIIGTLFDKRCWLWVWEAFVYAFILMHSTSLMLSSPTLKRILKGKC
In short: as §1

hT2R14 [1] = target: T1, hT2R14 (Homo sapiens (Human), UniProt Q9NYV8); experiment: hT2R panel inhibition, transient HEK293 G16g44, agonist Aristolochic Acid 2 μM; type: cell-based; details: HEK293, compound at 25 μM; receptor activated to EC80 with the corresponding agonist; read-out: screening result against bitter receptor 14
T1 sequence (Q9NYV8 whole entry): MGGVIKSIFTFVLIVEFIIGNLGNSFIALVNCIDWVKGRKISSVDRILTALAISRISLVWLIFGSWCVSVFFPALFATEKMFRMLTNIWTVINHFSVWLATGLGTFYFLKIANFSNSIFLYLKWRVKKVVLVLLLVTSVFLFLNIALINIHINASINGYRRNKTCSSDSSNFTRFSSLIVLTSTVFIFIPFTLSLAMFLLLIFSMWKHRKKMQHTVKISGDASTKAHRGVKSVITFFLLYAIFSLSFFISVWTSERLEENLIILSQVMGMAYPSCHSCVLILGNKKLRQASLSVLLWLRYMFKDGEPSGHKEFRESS
In short: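 Each hT2R was transiently transfected into HEK293 cells stably expressing G16g44 and assayed functionally for inhibition of agonist response. Agonists were applied at EC80: andrographolide at 0.5 mM for hT2R8 and aristolochic acid at 2 μM for hT2R14.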

hT2R14 [2] = target: T1, hT2R14; experiment: hT2R14 antagonist high-throughput FLIPR assay, stable cell line with G16g44, agonist aristolochic acid; type: cell-based; details: read-out: IC50 on hT2R14 bitter receptor
In short: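 HEK293 cells stably expressing hT2R14 with chimeric G16g44 were stimulated with aristolochic acid (3 μM), giving 70-80% of maximal receptor activity. Test compounds were added together with the agonist, and antagonism was read as fluorescent calcium signal on FLIPR.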

hT2R7 = hT2R7 (Homo sapiens (Human), UniProt Q9NYW3); experiment: hT2R panel inhibition, transient HEK293 G16g44, agonist Chloroquine pH6.5 10 mM; type: cell-based; details: HEK293, compound at 25 μM; receptor activated to EC80 with the corresponding agonist; read-out: screening result against bitter receptor 7
Sequence of hT2R7 (Q9NYW3 whole entry): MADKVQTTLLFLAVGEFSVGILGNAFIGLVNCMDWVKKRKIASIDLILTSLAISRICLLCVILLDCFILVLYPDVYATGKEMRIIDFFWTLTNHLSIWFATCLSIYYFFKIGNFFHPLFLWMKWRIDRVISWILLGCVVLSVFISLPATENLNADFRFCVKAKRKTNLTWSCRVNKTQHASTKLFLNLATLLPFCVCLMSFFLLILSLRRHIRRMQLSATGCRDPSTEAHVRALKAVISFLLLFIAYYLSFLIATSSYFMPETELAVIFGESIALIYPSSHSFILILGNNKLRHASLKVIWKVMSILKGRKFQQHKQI
In short: as §1

hT2R67 = experiment: hT2R panel inhibition, transient HEK293 G16g44, agonist Andrographolide 5 μM; type: cell-based, human; details: compound at 25 μM; receptor activated to EC80 with the corresponding agonist
In short: as §1

hT2R63 = experiment: hT2R panel inhibition, transient HEK293 G16g44, agonist Caffeine 1 mM or Andrographolide 100 μM; type: cell-based, human; details: compound at 25 μM; receptor activated to EC80 with the corresponding agonist
In short: as §1

hT2R55 = experiment: hT2R panel inhibition, transient HEK293 G16g44, agonist Cinchonine 150 μM; type: cell-based, human; details: compound at 25 μM; receptor activated to EC80 with the corresponding agonist
In short: as §1

hT2R44 = experiment: hT2R panel inhibition, transient HEK293 G16g44, agonist Denatonium 0.5 μM; type: cell-based, human; details: compound at 25 μM; receptor activated to EC80 with the corresponding agonist
In short: as §1

hT2R51 = hT2R51 (Homo sapiens (Human), UniProt P59533); experiment: hT2R panel inhibition, transient HEK293 G16g44, agonist Prop 2.5 μM; type: cell-based; details: HEK293, compound at 25 μM; receptor activated to EC80 with the corresponding agonist; read-out: screening result against bitter receptor 51
Sequence of hT2R51 (P59533 whole entry): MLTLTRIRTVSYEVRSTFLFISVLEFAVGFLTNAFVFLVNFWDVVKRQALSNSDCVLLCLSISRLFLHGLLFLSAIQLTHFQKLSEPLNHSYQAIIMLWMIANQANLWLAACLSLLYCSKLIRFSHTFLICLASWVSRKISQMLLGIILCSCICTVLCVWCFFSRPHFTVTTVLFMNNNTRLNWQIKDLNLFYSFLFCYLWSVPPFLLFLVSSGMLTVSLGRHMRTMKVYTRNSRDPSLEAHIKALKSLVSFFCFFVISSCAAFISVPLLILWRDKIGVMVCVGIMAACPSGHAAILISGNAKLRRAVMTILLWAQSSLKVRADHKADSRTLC
In short: as §1

hT2R54 = experiment: hT2R panel inhibition, transient HEK293 G16g44, agonist Ranitidine 5 mM; type: cell-based, human; details: compound at 25 μM; receptor activated to EC80 with the corresponding agonist
In short: as §1

Row | SMILES | inhibition at 25 µM (hT2R10) [%] | inhibition at 25 µM (hT2R9) [%] | inhibition at 25 µM (hT2R5) [%] | inhibition at 25 µM (hT2R3) [%] | screening result against bitter receptor 65 (hT2R65) | inhibition at 25 µM (hT2R61) [%] | inhibition at 25 µM (hT2R71) [%] | inhibition at 25 µM (hT2R64) [%] | inhibition at 25 µM (hT2R16) [%] | inhibition at 25 µM (hT2R14 [1]) [%] | IC50 (hT2R14 [2]) [µM] | inhibition at 25 µM (hT2R7) [%] | screening result against bitter receptor 67 (hT2R67) | screening result against bitter receptor 63 (hT2R63) | screening result against bitter receptor 55 (hT2R55) | screening result against bitter receptor 44 (hT2R44) | inhibition at 25 µM (hT2R51) [%] | screening result against bitter receptor 54 (hT2R54)
1 | COc1cc(OC)c(CN(Cc2ccccc2)S(=O)(=O)c2ccc(C(=O)O)cc2)c(OC)c1 [Example 5-15, 4-(N-benzyl-N-(2,4,6-trimethoxybenzyl)sulfamoyl)benzoic acid] | 40 to 60 | 20 to 40 | 20 to 40 | 40 to 60 | + (20% to 40% inhibition = +) | > 80 | 60 to 80 | 60 to 80 | 20 to 40 | > 80 | 10.8 | 20 to 40 | – | – | – | – | – | –
2 | O=C(O)c1ccc(S(=O)(=O)N(Cc2ccccc2)Cc2cccc(C(=O)O)c2)cc1 [Example 5-76, 3-((N-benzyl-4-carboxyphenylsulfonamido)methyl)benzoic acid] | – | 20 to 40 | 20 to 40 | 20 to 40 | – | 40 to 60 | 20 to 40 | – | – | – | – | – | + (20% to 40% inhibition = +) | ++ (40% to 60% inhibition = ++) | – | – | – | –
3 | COc1ccc(CN(Cc2ccccc2)S(=O)(=O)c2ccc(C(=O)O)cc2)c(OC)c1 [Example 5-13, 4-(N-benzyl-N-(2,4-dimethoxybenzyl)sulfamoyl)benzoic acid] | 20 to 40 | 20 to 40 | 20 to 40 | 40 to 60 | + (20% to 40% inhibition = +) | > 80 | 40 to 60 | 60 to 80 | 20 to 40 | > 80 | – | 20 to 40 | – | ++++ (80% or greater inhibition = ++++) | ++++ (80% or greater inhibition = ++++) | +++ (60% to 80% inhibition = +++) | 20 to 40 | +++ (60% to 80% inhibition = +++)
